For this test, the target named is T1, human PTH-1 receptor (Homo sapiens, UniProt Q03431).
T1 construct: expressed in transfected cells; host or cells: HEK-293
T1 sequence (Q03431 27-593): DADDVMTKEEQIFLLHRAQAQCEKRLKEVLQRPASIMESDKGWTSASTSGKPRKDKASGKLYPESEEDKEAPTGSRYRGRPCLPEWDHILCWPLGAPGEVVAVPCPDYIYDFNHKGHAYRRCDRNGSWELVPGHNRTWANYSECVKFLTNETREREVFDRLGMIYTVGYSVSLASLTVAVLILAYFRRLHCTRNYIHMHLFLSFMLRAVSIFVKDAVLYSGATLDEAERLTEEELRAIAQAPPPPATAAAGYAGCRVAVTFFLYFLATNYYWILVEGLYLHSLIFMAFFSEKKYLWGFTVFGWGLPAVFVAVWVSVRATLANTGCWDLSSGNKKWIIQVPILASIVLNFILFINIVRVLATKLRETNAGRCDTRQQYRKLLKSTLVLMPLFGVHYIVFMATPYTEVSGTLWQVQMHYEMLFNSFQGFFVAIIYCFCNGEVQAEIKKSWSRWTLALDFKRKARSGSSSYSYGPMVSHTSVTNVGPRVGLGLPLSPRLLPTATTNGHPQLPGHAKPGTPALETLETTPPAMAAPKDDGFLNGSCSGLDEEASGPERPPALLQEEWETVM
The test is described as follows: Reporter gene assay (CRE-luciferase) for agonist activity in transiently transfected HEK-293 cells. In kind it is cell-based. As to conditions: for hPTHR-2/hPTHR-1: Table 3, ratio of EC50 values, selectivity for hPTH-1 receptor over hPTH-2 receptor. As to the method:
Agonist activity of compounds on the human PTH-1 receptor was determined in a reporter gene assay by transiently transfecting HEK-293 cells with plasmids encoding human PTH-1 receptor under control of the SV40 promoter and a luciferase reporter gene under control of cAMP responsive elements (CRE). See Himmler et al, J. Recept. Res. 13 (1993) 79-94, for further guidance on this assay. Transfected cells were exposed to serial dilutions of compounds for 4-5 hours followed by lysis of cells, determination of luciferase activity, and determination of compound efficacies and EC50 values through non-linear regression.
PTH (1-34) was used as an internal control in each experiment and compounds were tested in at least three independent experiments. To determine selectivity, compounds were tested in luciferase-based transcriptional reporter gene assays expressing the human PTH-2 receptor.

Non-standard residues stand in square brackets, D forms with d. Residues, ends and D or L forms follow the SMILES beside them. 1Nal = N[C@@H](Cc1cccc2ccccc12)C(=O)O; β3hI = CC[C@H](C)[C@H](N)CC(=O)O; β3hE = N[C@@H](CCC(=O)O)CC(=O)O; Nle = CCCC[C@H](N)C(=O)O; βAla = NCCC(=O)O

For the molecule `CCCC[C@H](NC(=O)[C@H](CC(C)C)NC(=O)[C@H](CCC(N)=O)NC(=O)[C@@H](NC(=O)[C@H](CCC(=O)O)NC(=O)[C@H](CO)NC(=O)[C@@H](NC(=O)[C@@H](N)CO)C(C)C)[C@@H](C)CC)C(=O)N[C@@H](Cc1c[nH]cn1)C(=O)N[C@@H](CC(N)=O)C(=O)N[C@@H](CC(C)C)C(=O)NCC(=O)N[C@@H](CCCCN)C(=O)N[C@@H](Cc1c[nH]cn1)C(=O)N[C@@H](CC(C)C)C(=O)N[C@@H](CC(N)=O)C(=O)N[C@@H](CO)C(=O)N[C@H](CC(=O)N[C@@H](CCC(=O)O)C(=O)N[C@@H](CCCNC(=N)N)C(=O)N[C@H](C(=O)N[C@@H](CCC(=O)O)C(=O)N[C@@H](Cc1cccc2ccccc12)C(=O)N[C@@H](CC(C)C)C(=O)N[C@@H](CCCNC(=N)N)C(=O)N[C@@H](CCCCN)C(=O)N[C@@H](CC(C)C)C(=O)N[C@@H](CC(C)C)C(=O)N[C@@H](CCC(N)=O)C(=O)N[C@@H](CC(=O)O)C(=O)N[C@H](C(=O)N[C@@H](Cc1c[nH]cn1)C(=O)N[C@@H](CC(N)=O)C(=O)N[C@@H](CCC(=O)O)C(N)=O)C(C)C)C(C)C)[C@@H](C)CC` [SEQ ID NO: 29, [Nle^8, β-hIle^18,1-Nal^23, Leu^27, Glu^34] hPTH (1-34)-NH2] (H-SVSEIQL[Nle]HNLGKHLNS[β3hI]ERVE[1Nal]LRKLLQDVHNE-NH2; N-terminus assumed), the EC50 was 0.12 nM and the hPTHR-2/hPTHR-1 is given as 474.

Consider `CCCC[C@H](NC(=O)[C@H](CO)NC(=O)[C@H](CC(N)=O)NC(=O)[C@H](CC(C)C)NC(=O)[C@H](Cc1c[nH]cn1)NC(=O)[C@H](CCCCN)NC(=O)CNC(=O)[C@H](CC(C)C)NC(=O)[C@H](CC(N)=O)NC(=O)[C@H](Cc1c[nH]cn1)NC(=O)[C@H](CCCC)NC(=O)[C@H](CC(C)C)NC(=O)[C@H](CCC(N)=O)NC(=O)[C@@H](NC(=O)[C@H](CCC(=O)O)NC(=O)[C@H](CO)NC(=O)[C@@H](NC(=O)[C@@H](N)CO)C(C)C)[C@@H](C)CC)C(=O)N[C@@H](CCC(=O)O)CC(=O)N[C@@H](CCCNC(=N)N)C(=O)N[C@H](C(=O)N[C@@H](CCC(=O)O)C(=O)N[C@@H](Cc1cccc2ccccc12)C(=O)N[C@@H](CC(C)C)C(=O)N[C@@H](CCCNC(=N)N)C(=O)N[C@@H](CCCCN)C(=O)N[C@@H](CC(C)C)C(=O)N[C@@H](CC(C)C)C(=O)N[C@@H](CCC(N)=O)C(=O)N[C@@H](CC(=O)O)C(=O)N[C@H](C(=O)N[C@@H](Cc1c[nH]cn1)C(=O)N[C@@H](CC(N)=O)C(=O)N[C@@H](Cc1ccccc1)C(N)=O)C(C)C)C(C)C` [SEQ ID NO: 20, [Nle^8,18, β-hGlu^19,1-Nal^23, Leu^27] hPTH (1-34)-NH2] (H-SVSEIQL[Nle]HNLGKHLNS[Nle][β3hE]RVE[1Nal]LRKLLQDVHNF-NH2; N-terminus assumed), for which the hPTHR-2/hPTHR-1 came out at 91.

On to `CCCC[C@H](NC(=O)CCNC(=O)[C@H](CC(N)=O)NC(=O)[C@H](CC(C)C)NC(=O)[C@H](Cc1c[nH]cn1)NC(=O)[C@H](CCCCN)NC(=O)CNC(=O)[C@H](CC(C)C)NC(=O)[C@H](CC(N)=O)NC(=O)[C@H](Cc1c[nH]cn1)NC(=O)[C@H](CCCC)NC(=O)[C@H](CC(C)C)NC(=O)[C@H](CCC(N)=O)NC(=O)[C@@H](NC(=O)[C@H](CCC(=O)O)NC(=O)[C@H](CO)NC(=O)[C@@H](NC(=O)[C@@H](N)CO)C(C)C)[C@@H](C)CC)C(=O)N[C@@H](CCC(=O)O)C(=O)N[C@@H](CCCNC(=N)N)C(=O)N[C@H](C(=O)N[C@@H](CCC(=O)O)C(=O)N[C@@H](Cc1cccc2ccccc12)C(=O)N[C@@H](CC(C)C)C(=O)N[C@@H](CCCNC(=N)N)C(=O)N[C@@H](CCCCN)C(=O)N[C@@H](CC(C)C)C(=O)N[C@@H](CC(C)C)C(=O)N[C@@H](CCC(N)=O)C(=O)N[C@@H](CC(=O)O)C(=O)N[C@H](C(=O)N[C@@H](Cc1c[nH]cn1)C(=O)N[C@@H](CC(N)=O)C(=O)N[C@@H](Cc1ccccc1)C(N)=O)C(C)C)C(C)C` [SEQ ID NO: 15, [Nle^8,18, β-Ala^17,1-Nal^23, Leu^27] hPTH (1-34)-NH2] (H-SVSEIQL[Nle]HNLGKHLN[βAla][Nle]ERVE[1Nal]LRKLLQDVHNF-NH2), for which a half-maximal effect (EC50) was put at 0.12 nM and the hPTHR-2/hPTHR-1 came to 389.

Consider `CCCC[C@H](NC(=O)[C@H](CC(C)C)NC(=O)[C@H](CCC(N)=O)NC(=O)[C@@H](NC(=O)[C@H](CCC(=O)O)NC(=O)[C@H](CO)NC(=O)[C@@H](NC(=O)[C@@H](N)CO)C(C)C)[C@@H](C)CC)C(=O)N[C@@H](Cc1c[nH]cn1)C(=O)N[C@@H](CC(N)=O)C(=O)N[C@@H](CC(C)C)C(=O)NCC(=O)N[C@@H](CCCCN)C(=O)N[C@@H](Cc1c[nH]cn1)C(=O)N[C@@H](CC(C)C)C(=O)N[C@@H](CCC(=O)O)C(=O)N[C@@H](CO)C(=O)N[C@H](CC(=O)N[C@@H](CCC(=O)O)C(=O)N[C@@H](CCCNC(=N)N)C(=O)N[C@H](C(=O)N[C@@H](CCC(=O)O)C(=O)N[C@@H](Cc1cccc2ccccc12)C(=O)N[C@@H](CC(C)C)C(=O)N[C@@H](CCCNC(=N)N)C(=O)N[C@@H](CCCCN)C(=O)N[C@@H](CC(C)C)C(=O)N[C@@H](CC(C)C)C(=O)N[C@@H](CCC(N)=O)C(=O)N[C@@H](CC(=O)O)C(=O)N[C@H](C(=O)N[C@@H](Cc1c[nH]cn1)C(=O)N[C@@H](CC(N)=O)C(=O)N[C@@H](Cc1ccccc1)C(N)=O)C(C)C)C(C)C)[C@@H](C)CC` [SEQ ID NO: 21, [Nle^8, Glu^16, β-hIle^18,1-Nal^23, Leu^27] hPTH (1-34)-NH2] (H-SVSEIQL[Nle]HNLGKHLES[β3hI]ERVE[1Nal]LRKLLQDVHNF-NH2), for which the hPTHR-2/hPTHR-1 amounted to 234.

With `CCCC[C@H](NC(=O)[C@H](CC(C)C)NC(=O)[C@H](CCC(N)=O)NC(=O)[C@@H](NC(=O)[C@H](CCC(=O)O)NC(=O)[C@H](CO)NC(=O)[C@@H](NC(=O)[C@@H](N)CO)C(C)C)[C@@H](C)CC)C(=O)N[C@@H](Cc1c[nH]cn1)C(=O)N[C@@H](CO)C(=O)N[C@@H](CC(C)C)C(=O)NCC(=O)N[C@@H](CCCCN)C(=O)N[C@@H](Cc1c[nH]cn1)C(=O)N[C@@H](CC(C)C)C(=O)N[C@@H](CCCCN)C(=O)N[C@@H](CO)C(=O)N[C@H](CC(=O)N[C@@H](CCC(=O)O)C(=O)N[C@@H](CCCNC(=N)N)C(=O)N[C@H](C(=O)N[C@@H](CCC(=O)O)C(=O)N[C@@H](Cc1cccc2ccccc12)C(=O)N[C@@H](CC(C)C)C(=O)N[C@@H](CCCNC(=N)N)C(=O)N[C@@H](CCCCN)C(=O)N[C@@H](CC(C)C)C(=O)N[C@@H](CC(C)C)C(=O)N[C@@H](CCC(N)=O)C(=O)N[C@@H](CCCNC(=N)N)C(=O)N[C@H](C(=O)N[C@@H](Cc1c[nH]cn1)C(=O)N[C@@H](CCC(=O)O)C(=O)N[C@@H](Cc1ccccc1)C(N)=O)C(C)C)C(C)C)[C@@H](C)CC` [SEQ ID NO: 40, [Nle^8, Ser^10, Lys^16, β-hIle^18,1-Nal^23, Leu^27, Arg^30, Glu^33] hPTH(1-34)-NH2] (H-SVSEIQL[Nle]HSLGKHLKS[β3hI]ERVE[1Nal]LRKLLQRVHEF-NH2), the midpoint of the response, the EC50, lay at 0.12 nM and the hPTHR-2/hPTHR-1 is given as 69.

Consider `CCCC[C@H](NC(=O)CCNC(=O)[C@H](CC(N)=O)NC(=O)[C@H](CC(C)C)NC(=O)[C@H](Cc1c[nH]cn1)NC(=O)[C@H](CCCCN)NC(=O)CNC(=O)[C@H](CC(C)C)NC(=O)[C@H](CC(N)=O)NC(=O)[C@H](Cc1c[nH]cn1)NC(=O)[C@H](CCCC)NC(=O)[C@H](CC(C)C)NC(=O)[C@H](CCC(N)=O)NC(=O)[C@@H](NC(=O)[C@H](CCC(=O)O)NC(=O)[C@H](CO)NC(=O)[C@@H](NC(=O)[C@H](C)N)C(C)C)[C@@H](C)CC)C(=O)N[C@@H](CCC(=O)O)C(=O)N[C@@H](CCCNC(=N)N)C(=O)N[C@H](C(=O)N[C@@H](CCC(=O)O)C(=O)N[C@@H](Cc1cccc2ccccc12)C(=O)N[C@@H](CC(C)C)C(=O)N[C@@H](CCCNC(=N)N)C(=O)N[C@@H](CCCCN)C(=O)N[C@@H](CC(C)C)C(=O)N[C@@H](CC(C)C)C(=O)N[C@@H](CCC(N)=O)C(=O)N[C@@H](CC(=O)O)C(=O)N[C@H](C(=O)N[C@@H](Cc1c[nH]cn1)C(=O)N[C@@H](CC(N)=O)C(=O)N[C@@H](Cc1ccccc1)C(N)=O)C(C)C)C(C)C` [SEQ ID NO: 14, [Ala^1, Nle^8,18, β-Ala^17,1-Nal^23, Leu^27] hPTH (1-34)-NH2] (H-AVSEIQL[Nle]HNLGKHLN[βAla][Nle]ERVE[1Nal]LRKLLQDVHNF-NH2; N-terminus assumed), for which the hPTHR-2/hPTHR-1 was 449.

As usually defined, the EC50 is the midpoint of the concentration-response curve. The low end stands for an effect from little substance, the high end for a need for much substance.
